# From ChEMBL document CHEMBL4229332, “Novel multi-target azinesulfonamides of cyclic amine derivatives as potential antipsychotics with pro-social and pro-cognitive effects” (Eur J Med Chem, 2018)
# Active and inactive are the calls of the source. No cut-off for these calls is given here.
# Tests used:
# [1] = target: T1, 5-hydroxytryptamine receptor 2A (Homo sapiens, UniProt P28223); assay: biochemical; assay type: cell-based, CHO-K1
# [2] = target: T2, 5-hydroxytryptamine receptor 1A (Homo sapiens, UniProt P08908); assay: Partial agonist activity at human 5-HT1AR expressed in CHO-K1 cells assessed as increase in cAMP accumulation by chemiluminescence-based assay; assay type: functional, cell-based
# T2 sequence (P08908 whole entry): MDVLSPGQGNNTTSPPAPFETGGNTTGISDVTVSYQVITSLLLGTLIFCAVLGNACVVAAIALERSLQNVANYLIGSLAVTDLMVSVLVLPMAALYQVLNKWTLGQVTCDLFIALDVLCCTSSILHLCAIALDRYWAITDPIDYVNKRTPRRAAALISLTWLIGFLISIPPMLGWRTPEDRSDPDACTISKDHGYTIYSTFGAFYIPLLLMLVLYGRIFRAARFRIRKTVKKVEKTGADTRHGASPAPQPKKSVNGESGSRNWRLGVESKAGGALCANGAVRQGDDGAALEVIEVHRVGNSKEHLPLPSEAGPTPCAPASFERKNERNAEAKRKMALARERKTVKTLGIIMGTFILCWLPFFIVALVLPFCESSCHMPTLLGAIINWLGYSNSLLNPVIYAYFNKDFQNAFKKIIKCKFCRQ
# [3] = target: T3, 5-hydroxytryptamine receptor 1A (Homo sapiens) (UniProt P08908); assay: Partial agonist activity at human 5-HT1AR expressed in CHO-K1 cells assessed as increase in cAMP accumulation at 10^-6 M by chemiluminescence-based assay relative to serotonin; assay type: functional, cell-based
# T3 sequence (whole entry): T2 sequence (P08908 whole entry)
# [4] = target: T1, 5-hydroxytryptamine receptor 2A; assay: Antagonist activity at human 5-HT2AR expressed in HEK293 cells assessed as inhibition of serotonin-induced calcium flux at 10^-6 M after 30 mins by HTRF method; assay type: functional, cell-based
# [5] = target: T1, 5-hydroxytryptamine receptor 2A; assay: Antagonist activity at human 5-HT2AR expressed in HEK293 cells assessed as inhibition of serotonin-induced calcium flux after 30 mins by HTRF method; assay type: functional, cell-based
# [6] = target: T4, 5-hydroxytryptamine receptor 6 (Homo sapiens, UniProt P50406); assay: Antagonist activity at human 5-HT6R expressed in CHO-K1 cells assessed as inhibition of serotonin-induced cAMP accumulation at 10^-6 M after 30 mins by chemiluminescence-based assay; assay type: functional, cell-based
# [7] = target: T5, 5-hydroxytryptamine receptor 7 (Homo sapiens, UniProt P34969); assay: Antagonist activity at human 5-HT7R expressed in CHO-K1 cells assessed as inhibition of serotonin-induced cAMP accumulation after 30 mins by chemiluminescence-based assay; assay type: functional, cell-based
# [8] = target: T5, 5-hydroxytryptamine receptor 7; assay: Antagonist activity at human 5-HT7R expressed in CHO-K1 cells assessed as inhibition of serotonin-induced cAMP accumulation at 10^-6 M after 30 mins by chemiluminescence-based assay; assay type: functional, cell-based
# [9] = target: D(2) dopamine receptor (Homo sapiens) (UniProt P14416); assay: Antagonist activity at human D2LR expressed in CHO-K1 cells assessed as inhibition of dopamine-induced calcium flux by fluorimetric method; assay type: functional, cell-based
# [10] = target: D(2) dopamine receptor (Homo sapiens) (UniProt P14416); assay: Antagonist activity at human D2LR expressed in CHO-K1 cells assessed as inhibition of dopamine-induced calcium flux at 10^-6 M by fluorimetric method; assay type: functional, cell-based
# [11] = target: D(3) dopamine receptor (Homo sapiens) (UniProt P35462); assay: Antagonist activity at human D3R expressed in CHO-K1 cells assessed as inhibition of dopamine induced cAMP accumulation at 10^-6 M after 30 mins by HTRF method; assay type: functional, cell-based
# [12] = Drug level in Wistar rat plasma at 3 mg/kg, ip measured after 15 mins by LC-MS/MS analysis; assay type: ADME, organism-based
# [13] = Drug level in Wistar rat plasma at 3 mg/kg, ip measured after 30 mins by LC-MS/MS analysis; assay type: ADME, organism-based
# [14] = Drug level in Wistar rat plasma at 3 mg/kg, ip measured after 60 mins by LC-MS/MS analysis; assay type: ADME, organism-based
# [15] = Drug level in Wistar rat brain at 3 mg/kg, ip measured after 15 mins by LC-MS/MS analysis; assay type: ADME, organism-based; conditions: read-out: Drug uptake
# [16] = Drug level in Wistar rat brain at 3 mg/kg, ip measured after 30 mins by LC-MS/MS analysis; assay type: ADME, organism-based; conditions: read-out: Drug uptake
# [17] = Drug level in Wistar rat brain at 3 mg/kg, ip measured after 60 mins by LC-MS/MS analysis; assay type: ADME, organism-based; conditions: read-out: Drug uptake
# [18] = Ratio of drug level in brain to plasma in Wistar rat at 3 mg/kg, ip measured after 15 mins by LC-MS/MS analysis; assay type: ADME, organism-based; conditions: read-out: BPR
# [19] = Ratio of drug level in brain to plasma in Wistar rat at 3 mg/kg, ip measured after 30 mins by LC-MS/MS analysis; assay type: ADME, organism-based; conditions: read-out: BPR
# [20] = Ratio of drug level in brain to plasma in Wistar rat at 3 mg/kg, ip measured after 60 mins by LC-MS/MS analysis; assay type: ADME, organism-based; conditions: read-out: BPR
# [21] = Toxicity in ip dosed Sprague-Dawley rat assessed as sedation pretreated for 60 mins followed by PCP addition measured for 30 mins starting 15 min after rat reintroduction to auto-tracks; assay type: organism-based; conditions: in vivo
# Rattus norvegicus [22] = assay: Antipsychotic activity in Sprague-Dawley rat assessed as reduction in PCP-induced hyper-locomotion at 1 to 3 mg/kg, ip pretreated for 60 mins followed by PCP addition measured for 30 mins starting 15 min after rat reintroduction to auto-tracks; assay type: functional, organism-based
# [23] = target: T2, 5-hydroxytryptamine receptor 1A; assay: biochemical
# Description: Displacement of [3H]-8-OH-DPAT from human 5-HT1AR expressed in HEK293 cell membranes after 1 hr by microbeta counting method
# [24] = target: T5, 5-hydroxytryptamine receptor 7; assay: biochemical
# Description: Displacement of [3H]-5-CT from human 5-HT7R expressed in HEK293 cell membranes after 1 hr at 37 degC by microbeta counting method
# Rattus norvegicus [25] = assay: Effect on failure incidence during conditioned avoidance response test in Sprague-Dawley rat at 6 mg/kg, ip administered 60 mins prior to testing; assay type: ADME, organism-based; conditions: in vivo, 1 h
# Rattus norvegicus [26] = assay: Reversal of ketamine-induced working social withdrawal in Sprague-Dawley rat at 1 mg/kg, ip pretreated for 60 mins followed by ketamine administration; assay type: functional, organism-based
# Rattus norvegicus [27] = organism: Rattus norvegicus; assay: animal or person; conditions: Sprague-Dawley, ip, read-out: MED
# Description: Antipsychotic activity in ip dosed Sprague-Dawley rat assessed as reduction in PCP-induced hyper-locomotion pretreated for 60 mins followed by PCP addition measured for 30 mins starting 15 min after rat reintroduction to auto-tracks
# Rattus norvegicus [28] = organism: Rattus norvegicus; assay: animal or person; conditions: Sprague-Dawley, ip, read-out: MED; remark: listed apart in the source
# Description: Reversal of PCP-induced cognitive impairment in ip dosed Sprague-Dawley rat assessed as reduction in time spent exploring novel object over familiar object pretreated for 60 mins followed by PCP addition by novel object recognition assay
# Rattus norvegicus [29] = organism: Rattus norvegicus; assay: animal or person; conditions: Sprague-Dawley, ip, read-out: MED; remark: listed apart in the source
# Description: Antipsychotic activity in ip dosed Sprague-Dawley rat assessed as suppression of avoidance behavior by avoiding foot shock administered 60 mins prior to test by conditioned avoidance response test
# [30] = target: T6, Alpha-1A adrenergic receptor (Homo sapiens) (UniProt P35348); assay: Antagonist activity at human adrenergic alpha1A receptor expressed in CHO cells assessed as inhibition of epinephrine-induced calcium flux by fluorimetric method; assay type: functional, cell-based
# T6 sequence (whole entry): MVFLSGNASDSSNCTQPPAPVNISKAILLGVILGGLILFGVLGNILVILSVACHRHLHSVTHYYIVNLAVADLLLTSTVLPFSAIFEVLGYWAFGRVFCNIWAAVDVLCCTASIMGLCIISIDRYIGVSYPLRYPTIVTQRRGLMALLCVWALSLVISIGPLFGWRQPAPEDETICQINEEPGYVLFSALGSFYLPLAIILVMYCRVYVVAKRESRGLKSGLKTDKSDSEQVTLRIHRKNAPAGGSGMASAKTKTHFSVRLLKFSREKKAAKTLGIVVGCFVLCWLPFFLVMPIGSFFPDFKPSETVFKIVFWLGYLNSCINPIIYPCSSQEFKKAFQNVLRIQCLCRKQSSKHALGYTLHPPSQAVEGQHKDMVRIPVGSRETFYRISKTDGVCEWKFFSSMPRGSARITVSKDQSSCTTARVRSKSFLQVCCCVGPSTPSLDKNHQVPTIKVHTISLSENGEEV
# [31] = target: T4, 5-hydroxytryptamine receptor 6; assay: biochemical
# Description: Displacement of [3H]-LSD from human 5-HT6R expressed in HEK293 cell membranes after 1 hr at 37 degC by microbeta counting method
# Rattus norvegicus [32] = assay: Effect on failure incidence during conditioned avoidance response test in Sprague-Dawley rat at 0.3 mg/kg, ip administered 60 mins prior to testing; assay type: ADME, organism-based; conditions: in vivo, 1 h
# Rattus norvegicus [33] = organism: Rattus norvegicus; assay: animal or person; conditions: Sprague-Dawley, ip, read-out: MED; remark: listed apart in the source
# Description: Reversal of ketamine-induced working social withdrawal in ip dosed Sprague-Dawley rat pretreated for 60 mins followed by ketamine administration
# Rattus norvegicus [34] = assay: Toxicity in Wistar rat assessed as increase in prolactin level at 3 mg/kg, po after 60 mins by ELISA; assay type: organism-based; conditions: in vivo, 1 h
# [35] = Toxicity in ip dosed Sprague-Dawley rat assessed as induction of catalepsy measured every 30 mins up to 240 mins by bar test; assay type: organism-based; conditions: Sprague-Dawley, in vivo
# Rattus norvegicus [36] = assay: Effect on failure incidence during conditioned avoidance response test in Sprague-Dawley rat at 2 mg/kg, ip administered 60 mins prior to testing; assay type: ADME, organism-based; conditions: in vivo, 1 h
# T1 sequence (P28223 whole entry): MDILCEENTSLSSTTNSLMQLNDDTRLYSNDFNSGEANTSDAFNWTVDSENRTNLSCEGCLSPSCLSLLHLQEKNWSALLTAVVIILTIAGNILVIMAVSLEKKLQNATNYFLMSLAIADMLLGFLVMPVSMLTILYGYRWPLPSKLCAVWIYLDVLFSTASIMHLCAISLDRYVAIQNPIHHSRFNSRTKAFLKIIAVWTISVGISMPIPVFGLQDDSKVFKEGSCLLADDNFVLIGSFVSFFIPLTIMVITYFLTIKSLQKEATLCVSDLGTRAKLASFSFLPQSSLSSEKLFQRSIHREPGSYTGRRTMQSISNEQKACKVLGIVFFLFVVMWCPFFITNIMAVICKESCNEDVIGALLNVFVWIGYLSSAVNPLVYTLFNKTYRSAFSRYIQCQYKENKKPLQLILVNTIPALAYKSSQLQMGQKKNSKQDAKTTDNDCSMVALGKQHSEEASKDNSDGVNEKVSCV
# T5 sequence (P34969 whole entry): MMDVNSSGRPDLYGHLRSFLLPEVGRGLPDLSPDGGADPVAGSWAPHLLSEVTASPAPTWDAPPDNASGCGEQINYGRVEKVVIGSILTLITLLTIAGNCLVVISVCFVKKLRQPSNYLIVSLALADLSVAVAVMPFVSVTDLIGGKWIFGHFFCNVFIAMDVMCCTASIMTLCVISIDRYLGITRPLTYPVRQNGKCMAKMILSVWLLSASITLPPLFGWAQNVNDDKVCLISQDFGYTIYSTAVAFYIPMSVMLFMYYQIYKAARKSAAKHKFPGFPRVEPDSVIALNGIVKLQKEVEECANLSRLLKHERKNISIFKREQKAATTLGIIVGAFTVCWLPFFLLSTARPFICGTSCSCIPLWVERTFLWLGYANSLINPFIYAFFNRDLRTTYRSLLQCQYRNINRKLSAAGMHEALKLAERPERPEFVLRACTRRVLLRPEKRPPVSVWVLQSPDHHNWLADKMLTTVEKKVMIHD
# D(2) dopamine receptor (Homo sapiens), sequence (P14416 whole entry): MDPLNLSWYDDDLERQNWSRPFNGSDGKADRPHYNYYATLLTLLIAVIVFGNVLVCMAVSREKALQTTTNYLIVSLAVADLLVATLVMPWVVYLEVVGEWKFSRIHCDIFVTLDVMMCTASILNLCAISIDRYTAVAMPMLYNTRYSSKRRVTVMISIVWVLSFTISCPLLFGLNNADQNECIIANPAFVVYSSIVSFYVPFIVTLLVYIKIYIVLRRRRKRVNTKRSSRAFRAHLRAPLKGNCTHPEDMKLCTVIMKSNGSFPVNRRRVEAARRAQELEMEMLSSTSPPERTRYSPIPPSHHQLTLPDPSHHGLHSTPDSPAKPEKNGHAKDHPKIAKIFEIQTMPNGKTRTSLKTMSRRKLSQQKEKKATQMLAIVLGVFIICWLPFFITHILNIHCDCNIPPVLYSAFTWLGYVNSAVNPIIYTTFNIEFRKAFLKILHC
# T4 sequence (P50406 whole entry): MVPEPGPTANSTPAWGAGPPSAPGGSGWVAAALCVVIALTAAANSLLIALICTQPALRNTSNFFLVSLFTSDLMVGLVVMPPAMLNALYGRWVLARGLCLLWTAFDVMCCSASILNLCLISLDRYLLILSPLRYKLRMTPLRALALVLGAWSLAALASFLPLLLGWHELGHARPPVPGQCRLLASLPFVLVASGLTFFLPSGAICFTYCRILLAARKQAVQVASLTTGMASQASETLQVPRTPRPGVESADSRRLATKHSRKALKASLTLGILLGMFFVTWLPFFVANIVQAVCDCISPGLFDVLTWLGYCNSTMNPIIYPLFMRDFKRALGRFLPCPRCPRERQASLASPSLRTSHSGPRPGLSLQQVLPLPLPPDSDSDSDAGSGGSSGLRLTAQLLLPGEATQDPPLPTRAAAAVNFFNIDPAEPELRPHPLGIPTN
# D(3) dopamine receptor (Homo sapiens), sequence (P35462 whole entry): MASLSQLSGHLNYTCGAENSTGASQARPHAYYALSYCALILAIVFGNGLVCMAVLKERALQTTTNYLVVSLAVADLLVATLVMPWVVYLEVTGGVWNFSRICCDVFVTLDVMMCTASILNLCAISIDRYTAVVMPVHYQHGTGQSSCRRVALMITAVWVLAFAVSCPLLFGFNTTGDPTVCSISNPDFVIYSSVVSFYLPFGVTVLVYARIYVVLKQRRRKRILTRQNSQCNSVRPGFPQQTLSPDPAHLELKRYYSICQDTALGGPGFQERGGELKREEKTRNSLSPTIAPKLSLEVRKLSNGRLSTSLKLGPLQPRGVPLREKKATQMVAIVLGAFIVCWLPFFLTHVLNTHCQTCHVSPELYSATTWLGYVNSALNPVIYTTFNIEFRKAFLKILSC
smiles,measurement,setting,value
O=S(=O)(c1cncc2ccccc12)N1CCC[C@@H]1CCN1CCN(c2cccc3sccc23)CC1,Ki,[1],26 nM
same,EC50,[2],11 nM
same,Activity,[3],36%
same,inhibition,[4],100%
same,Kb,[5],9.5 nM
same,inhibition,[6],73%
same,Kb,[7],0.47 nM
same,inhibition,[8],100%
same,Kb,[9],0.74 nM
same,inhibition,[10],100%
same,inhibition,[11],78%
same,concentration at 0.25 h,[12],564 nM
same,concentration at 0.5 h,[13],518 nM
same,concentration at 1 h,[14],96.7 nM
same,concentration at 0.25 h,[15],266 nM
same,concentration at 0.5 h,[16],242 nM
same,concentration at 1 h,[17],114 nM
same,Kp at 0.25 h,[18],0.47
same,Kp at 0.5 h,[19],0.48
same,Kp at 1 h,[20],1.24
same,MTD at 0.5 h,[21],3 mg/kg
same,Activity,Rattus norvegicus [22],inactive
same,Ki,[23],24 nM
same,Ki,[24],4 nM
CN1CCN(C2=Nc3cc(Cl)ccc3Nc3ccccc32)CC1 [CLOZAPINE],MTD at 0.5 h,[21],3 mg/kg
same,Activity,Rattus norvegicus [25],Non-Toxic
same,Activity,Rattus norvegicus [26],inactive
same,minimal effective dose,Rattus norvegicus [27],1 mg/kg
same,minimal effective dose,Rattus norvegicus [28],1 mg/kg
same,minimal effective dose,Rattus norvegicus [29],1 mg/kg
COc1cccc(OC)c1OCCNCC1COc2ccccc2O1 (centres undefined),Kb,[30],0.24 nM
O=S(=O)(c1cccc2cnccc12)N1CCC[C@H]1CCN1CCN(c2nsc3ccccc23)CC1,Ki,[1],18 nM
same,concentration at 0.25 h,[12],647 nM
same,concentration at 0.5 h,[13],417 nM
same,concentration at 1 h,[14],117 nM
same,concentration at 0.25 h,[15],90.1 nM
same,concentration at 0.5 h,[16],67.1 nM
same,concentration at 1 h,[17],19.7 nM
same,Kp at 0.25 h,[18],0.15
same,Kp at 0.5 h,[19],0.19
same,Kp at 1 h,[20],0.17
same,Ki,[31],360 nM
same,Ki,[23],37 nM
same,Ki,[24],12 nM
Cc1nc2n(c(=O)c1CCN1CCC(c3noc4cc(F)ccc34)CC1)CCCC2 [RISPERIDONE],Activity,Rattus norvegicus [32],Non-Toxic
same,minimal effective dose,Rattus norvegicus [29],0.1 mg/kg
same,minimal effective dose,Rattus norvegicus [33],0.1 mg/kg
Cc1cc2c(s1)Nc1ccccc1N=C2N1CCN(C)CC1 [OLANZAPINE],Activity,Rattus norvegicus [34],Toxic
same,MTD at 0.5 h,[21],1.25 mg/kg
same,MTD,[35],40 mg/kg
same,Activity,Rattus norvegicus [36],Non-Toxic
same,minimal effective dose,Rattus norvegicus [27],1.88 mg/kg
same,minimal effective dose,Rattus norvegicus [28],1.25 mg/kg
same,minimal effective dose,Rattus norvegicus [29],1 mg/kg
